Data as given in ChEMBL document CHEMBL1135808, “A new type of mixed anhydride and its applications to the synthesis of 7-substituted 8-chloro-5,5-dioxoimidazo[1,2-b][1,4,2]benzodithiazines with in vitro antitumor activity” (2002).

Experiments:
SF-268 = assay: In vitro growth inhibition against CNS cancer SF-268 cell line was reported.; type: functional; conditions: Homo sapiens
HCT-15 [1] = assay: In vitro total growth inhibition against colon cancer HCT-15 cell lines was reported.; type: functional; conditions: Homo sapiens, read-out: Log TGI (converted)
DU-145 [2] = assay: Log of molar concentration leading to 50% cell death against prostate cancer […] cell line was reported; type: functional; conditions: Homo sapiens, read-out: Log LC50 (the source's name) (converted)
A498 [3] = assay: In vitro total growth inhibition against renal cancer A-498 cell lines was reported.; type: functional; conditions: Homo sapiens, read-out: Log TGI (converted)
OVCAR-8 [4] = assay: In vitro total growth inhibition against ovarian cancer OVCAR-8 cell lines was reported.; type: functional; conditions: Homo sapiens, read-out: Log TGI (converted)
NCI-H23 = assay: In vitro growth inhibition against non-small-cell lung cancer NCI-H23 cell line was reported.; type: functional; conditions: Homo sapiens
HOP-62 [5] = assay: Log of molar concentration leading to 50% cell death against non-small-cell lung cancer HOP-62 cell line was reported; type: functional; conditions: Homo sapiens, read-out: Log LC50 (the source's name) (converted)
HOP-62 [6] = assay: In vitro growth inhibition against non-small-cell lung cancer HOP-62 cell line was reported.; type: functional; conditions: Homo sapiens
UACC-257 = assay: In vitro total growth inhibition against melanoma UACC-257 cell lines was reported.; type: functional; conditions: Homo sapiens, read-out: Log TGI (converted)
UO-31 = assay: In vitro growth inhibition against renal cancer UO-31 cell line was reported.; type: functional; conditions: Homo sapiens
LOX IMVI = assay: In vitro growth inhibition against melanoma LOX IMVI cell line was reported.; type: functional; conditions: Homo sapiens
SK-MEL-28 [7] = assay: In vitro growth inhibition against melanoma SK-MEL-28 cell line was reported.; type: functional; conditions: Homo sapiens
SW-620 [8] = assay: In vitro growth inhibition against colon cancer SW620 cell line was reported.; type: functional; conditions: Homo sapiens
NCI-H46 = assay: In vitro total growth inhibition against non-small-cell lung cancer […] cell lines was reported.; type: functional; conditions: Homo sapiens, read-out: Log TGI (converted)
SNB-19 = assay: In vitro growth inhibition against CNS cancer SNB-19 cell line was reported.; type: functional; conditions: Homo sapiens
OVCAR-8 [9] = assay: In vitro growth inhibition against ovarian cancer OVCAR-8 cell line was reported.; type: functional; conditions: Homo sapiens
HCC 2998 [10] = assay: In vitro growth inhibition against colon cancer HCC2998 cell line was reported.; type: functional; conditions: Homo sapiens
IGROV-1 [11] = assay: Log of molar concentration leading to 50% cell death against ovarian cancer IGROV1 cell line was reported; type: functional; conditions: Homo sapiens, read-out: Log LC50 (the source's name) (converted)
NCI-H522 [12] = assay: In vitro growth inhibition against non-small-cell lung cancer […] cell line was reported.; type: functional; conditions: Homo sapiens
MDA-MB-231 [13] = assay: In vitro total growth inhibition against breast cancer MDA-MB-231/ATCC cell lines was reported.; type: functional; conditions: Homo sapiens, read-out: Log TGI (converted)
OVCAR-4 = assay: Log of molar concentration leading to 50% cell death against ovarian cancer OVCAR-4 cell line was reported; type: functional; conditions: Homo sapiens, read-out: Log LC50 (the source's name) (converted)
DU-145 [14] = assay: In vitro growth inhibition against prostate cancer […] cell line was reported.; type: functional; conditions: Homo sapiens
NCI-H226 [15] = assay: In vitro total growth inhibition against non-small-cell lung cancer NCI-H226 cell lines was reported.; type: functional; conditions: Homo sapiens, read-out: Log TGI (converted)
BT-549 = assay: In vitro total growth inhibition against breast cancer BT 549 cell line was reported.; type: functional; conditions: Homo sapiens, read-out: Log TGI (converted)
IGROV-1 [16] = assay: In vitro total growth inhibition against ovarian cancer IGROV1 cell lines was reported.; type: functional; conditions: Homo sapiens, read-out: Log TGI (converted)
MDA-MB-435 [17] = assay: In vitro growth inhibition against breast cancer MDA-MB-435 cell line was reported.; conditions: Homo sapiens
Malme-3M = assay: In vitro growth inhibition against melanoma MALME 3M cell line was reported.; type: functional; conditions: Homo sapiens
HCT-15 [18] = assay: In vitro growth inhibition against colon cancer […] cell line was reported.; type: functional; conditions: Homo sapiens
UACC-62 = assay: In vitro total growth inhibition against melanoma UACC-62 cell lines was reported.; type: functional; conditions: Homo sapiens, read-out: Log TGI (converted)
COLO 205 [19] = assay: In vitro growth inhibition against colon cancer COLO 205 cell line was reported.; type: functional; conditions: Homo sapiens
HT-29 [20] = assay: In vitro growth inhibition against colon cancer HT-29 cell line was reported.; type: functional; conditions: Homo sapiens
SW-620 [21] = assay: In vitro total growth inhibition against colon cancer SW-620 cell lines was reported.; type: functional; conditions: Homo sapiens, read-out: Log TGI (converted)
OVCAR-3 = assay: In vitro total growth inhibition against ovarian cancer OVCAR-3 cell lines was reported.; type: functional; conditions: Homo sapiens, read-out: Log TGI (converted)
SK-MEL-2 = assay: In vitro growth inhibition against melanoma SK-MEL-2 cell line was reported.; type: functional; conditions: Homo sapiens
SK-OV-3 = assay: In vitro growth inhibition against ovarian cancer SK-OV-3 cell line was reported.; type: functional; conditions: Homo sapiens
NCI-H322M [22] = assay: Log of molar concentration leading to 50% cell death against non-small-cell lung cancer NCI-H322M cell line was reported; type: functional; conditions: Homo sapiens, read-out: Log LC50 (the source's name) (converted)
SK-MEL-28 [23] = assay: In vitro total growth inhibition against melanoma SK-MEL-28 cell lines was reported.; type: functional; conditions: Homo sapiens, read-out: Log TGI (converted)
RXF 393 = assay: In vitro total growth inhibition against renal cancer RXF 393 cell lines was reported.; type: functional; conditions: Homo sapiens, read-out: Log TGI (converted)
SK-MEL-5 = assay: In vitro growth inhibition against melanoma SK-MEL-5 cell line was reported.; type: functional; conditions: Homo sapiens
PC-3 = assay: In vitro total growth inhibition against prostate cancer PC-3 cell lines was reported.; type: functional; conditions: Homo sapiens, read-out: Log TGI (converted)
Tumor Cell line = assay: In vitro inhibition of 50% cell growth was reported as log of molar concentration for 60 cell lines.; type: functional; conditions: Homo sapiens
MDA-MB-231 [24] = assay: Log of molar concentration leading to 50% cell death against breast cancer MDA-MB-231/ATCC cell line was reported; type: functional; conditions: Homo sapiens, read-out: Log LC50 (the source's name) (converted)
HT-29 [25] = assay: In vitro total growth inhibition against colon cancer HT-29 cell lines was reported.; type: functional; conditions: Homo sapiens, read-out: Log TGI (converted)
MCF7 = assay: In vitro total growth inhibition against breast cancer MCF 7 cell lines was reported.; type: functional; conditions: Homo sapiens, read-out: Log TGI (converted)
U-251 = assay: Log of molar concentration leading to 50% cell death against CNS cancer U251 cell line was reported; type: functional; conditions: Homo sapiens, read-out: Log LC50 (the source's name) (converted)
NCI-H322M [26] = assay: In vitro total growth inhibition against non-small-cell lung cancer NCI-H322M cell lines was reported.; type: functional; conditions: Homo sapiens, read-out: Log TGI (converted)
COLO 205 [27] = assay: In vitro total growth inhibition against colon cancer COLO 205 cell lines was reported.; type: functional; conditions: Homo sapiens, read-out: Log TGI (converted)
A498 [28] = assay: In vitro growth inhibition against renal cancer A498 cell line was reported.; type: functional; conditions: Homo sapiens
MDA-N = assay: In vitro total growth inhibition against breast cancer MDA-N cell lines was reported.; type: functional; conditions: Homo sapiens, read-out: Log TGI (converted)
MDA-MB-231 [29] = assay: In vitro growth inhibition against breast cancer MDA-MB-231/ATCC cell line was reported.; type: functional; conditions: Homo sapiens
KM12 [30] = assay: Log of molar concentration leading to 50% cell death against colon cancer KM12 cell line was reported; type: functional; conditions: Homo sapiens, read-out: Log LC50 (the source's name) (converted)
NCI-H522 [31] = assay: In vitro total growth inhibition against non-small-cell lung cancer NCI-522 cell lines was reported.; type: functional; conditions: Homo sapiens, read-out: Log TGI (converted)
M14 = assay: In vitro total growth inhibition against melanoma M14 cell lines was reported.; type: functional; conditions: Homo sapiens, read-out: Log TGI (converted)
NCI-H226 [32] = assay: In vitro growth inhibition against non-small-cell lung cancer NCI-H226 cell line was reported.; type: functional; conditions: Homo sapiens
ACHN = assay: In vitro total growth inhibition against renal cancer ACHN cell lines was reported.; type: functional; conditions: Homo sapiens, read-out: Log TGI (converted)
SK-MEL-28 [33] = assay: Log of molar concentration leading to 50% cell death against melanoma SK-MEL-28 cell line was reported; type: functional; conditions: Homo sapiens, read-out: Log LC50 (the source's name) (converted)
MDA-MB-435 [34] = assay: In vitro total growth inhibition against breast cancer MDA-MB-435 cell lines was reported.; conditions: Homo sapiens, read-out: Log TGI (converted)
KM12 [35] = assay: In vitro growth inhibition against colon cancer KM12 cell line was reported.; type: functional; conditions: Homo sapiens
HCC 2998 [36] = assay: Log of molar concentration leading to 50% cell death against colon cancer HCC2998 cell line was reported; type: functional; conditions: Homo sapiens, read-out: Log LC50 (the source's name) (converted)
OVCAR-5 = assay: In vitro total growth inhibition against ovarian cancer OVCAR-5 cell lines was reported.; type: functional; conditions: Homo sapiens, read-out: Log TGI (converted)

O=C(Nc1nccs1)c1cc2c(cc1Cl)Sc1nccn1S2(=O)=O
GI50 (SF-268): 19.1 µM
TGI (HCT-15 [1]): 33.9 µM
CC50 (DU-145 [2]): 27.5 µM
TGI (A498 [3]): 34.7 µM
TGI (OVCAR-8 [4]): 37.2 µM
GI50 (NCI-H23): 17 µM
CC50 (HOP-62 [5]): 61.7 µM
GI50 (HOP-62 [6]): 14.8 µM
TGI (UACC-257): 26.9 µM
GI50 (UO-31): 4.37 µM
GI50 (LOX IMVI): 11 µM
GI50 (SK-MEL-28 [7]): 20 µM
GI50 (SW-620 [8]): 17 µM
TGI (NCI-H46): 29.5 µM
GI50 (SNB-19): 19.1 µM
GI50 (OVCAR-8 [9]): 17.4 µM
GI50 (HCC 2998 [10]): 15.8 µM
CC50 (IGROV-1 [11]): 75.9 µM
GI50 (NCI-H522 [12]): 1.23 µM
TGI (MDA-MB-231 [13]): 36.3 µM
CC50 (OVCAR-4): 91.2 µM
GI50 (DU-145 [14]): 16.2 µM
TGI (NCI-H226 [15]): 35.5 µM
TGI (BT-549): 35.5 µM
TGI (IGROV-1 [16]): 29.5 µM
GI50 (MDA-MB-435 [17]): 17.4 µM
GI50 (Malme-3M): 20 µM
GI50 (HCT-15 [18]): 12.3 µM
TGI (UACC-62): 27.5 µM
GI50 (COLO 205 [19]): 17 µM
GI50 (HT-29 [20]): 20 µM
TGI (SW-620 [21]): 41.7 µM
TGI (OVCAR-3): 28.2 µM
GI50 (SK-MEL-2): 17.4 µM
GI50 (SK-OV-3): 24.5 µM
CC50 (NCI-H322M [22]): 64.6 µM
TGI (SK-MEL-28 [23]): 38 µM
TGI (RXF 393): 39.8 µM
GI50 (SK-MEL-5): 16.6 µM
TGI (PC-3): 33.1 µM
GI50 (Tumor Cell line): 28.2 µM
CC50 (MDA-MB-231 [24]): 67.6 µM
TGI (HT-29 [25]): 46.8 µM
TGI (MCF7): 20 µM
CC50 (U-251): 56.2 µM
TGI (NCI-H322M [26]): 33.9 µM
TGI (COLO 205 [27]): 30.9 µM
GI50 (A498 [28]): 19.1 µM
TGI (MDA-N): 33.1 µM
GI50 (MDA-MB-231 [29]): 19.5 µM
CC50 (KM12 [30]): 57.5 µM
TGI (NCI-H522 [31]): 2.82 µM
TGI (M14): 34.7 µM
GI50 (NCI-H226 [32]): 19.5 µM
TGI (ACHN): 32.4 µM
CC50 (SK-MEL-28 [33]): 70.8 µM
TGI (MDA-MB-435 [34]): 31.6 µM
GI50 (KM12 [35]): 12.3 µM
CC50 (HCC 2998 [36]): 53.7 µM
TGI (OVCAR-5): 45.7 µM
